# In paper PMC5679629, “Flavin-containing monooxygenase 3 (FMO3) role in busulphan metabolic pathway” (PLoS ONE, 2017):
# What was measured:
# Experiment in all cases: THT disappearance with recombinant cDNA-expressed enzyme microsomes
# Assay type in all cases: in vitro ADME
# FMO3 = target: T1, FMO3 (Homo sapiens, UniProt P31513); details: 25μM THT, 0.35mg protein/mL
# T1 construct: purchased BD Biosciences; host or cells: baculovirus infected insect cells
# T1 sequence (P31513 1-532): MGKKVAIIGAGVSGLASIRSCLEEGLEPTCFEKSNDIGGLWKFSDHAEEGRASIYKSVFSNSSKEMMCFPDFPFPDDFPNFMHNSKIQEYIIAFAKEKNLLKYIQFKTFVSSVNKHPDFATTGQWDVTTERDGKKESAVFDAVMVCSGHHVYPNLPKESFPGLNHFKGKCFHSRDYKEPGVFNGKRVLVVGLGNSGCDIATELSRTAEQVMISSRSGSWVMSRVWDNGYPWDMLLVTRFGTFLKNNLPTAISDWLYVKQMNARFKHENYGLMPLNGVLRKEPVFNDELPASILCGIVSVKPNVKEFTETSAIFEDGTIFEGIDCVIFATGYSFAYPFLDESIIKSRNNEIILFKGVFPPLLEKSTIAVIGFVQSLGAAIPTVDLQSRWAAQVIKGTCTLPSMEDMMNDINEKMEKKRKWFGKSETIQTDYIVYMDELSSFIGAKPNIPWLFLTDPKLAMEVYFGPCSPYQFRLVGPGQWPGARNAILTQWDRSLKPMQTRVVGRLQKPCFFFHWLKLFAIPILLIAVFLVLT
# Protocol: (§1) To identify the enzymes involved in Bu metabolism, 11 microsomal batches (BD Biosciences, Stockholm, Sweden), each containing a separate cDNA-expressed enzyme, were incubated with 25μM THT. The microsomes contained FMO3, CYP1A1, CYP1A2, CYP2B6, CYP2C8, CYP2C9, CYP2C19, CYP2D6, CYP2E1, CYP3A4 or CYP4A11. Time curves (0, 5, 15, 30 and 60min) were performed at a concentration of 0.35mg protein /mL for FMO3 and 35pmol CYP/mL for the CYP enzymes. The recombinant enzymes were produced from human cDNA expressing each of them using baculovirus expression system. Baculovirus infected insect cells were used to prepare these microsomes.
# (§2) Incubations were performed in triplicate and negative controls (excluding NADPH, microsomes, THT or by terminating the incubations before the addition of NADPH) were run in parallel.
# (§3) To measure THT and the secondary metabolite, sulfolane, the reactions were terminated by adding dichloromethane. Samples (180μL) were added to 10μM nicotine (20μL, Merck, Hoherbrunn, Germany), used as an internal standard, before extraction. The matrix was extracted by liquid-liquid extraction with dichloromethane (equal volumes, 200μL) after 30 sec of high speed vortexing. After extraction and centrifugation at 16000 g for 10 min, the organic phase was transferred into GC-MS tubes. […] Samples (180μL) were added to 10 μM of 3-methylsulfolane (20μL, TCI, Tokyo, Japan), used as an internal standard. The matrix was lyophilized (< 1 mbar at 40°C under N2 stream) to dryness, the residue was dissolved in 10 μL water and 200 μL of ethyl acetate was added for extraction. Samples were vortexed for 30 sec at high speed and centrifuged at 16000 g for 10 min. The organic phase was transferred to GC-MS tubes.
# (§4) Concentrations of THT and its metabolites were measured using GC-MS [18] after validation for use with microsomal incubations according to the international guidelines.
# CYP2B6 = target: T2, CYP2B6 (Homo sapiens, UniProt P20813); details: 25μM THT, 35pmol CYP/mL
# T2 construct: purchased BD Biosciences; host or cells: baculovirus infected insect cells
# T2 sequence (P20813 1-491): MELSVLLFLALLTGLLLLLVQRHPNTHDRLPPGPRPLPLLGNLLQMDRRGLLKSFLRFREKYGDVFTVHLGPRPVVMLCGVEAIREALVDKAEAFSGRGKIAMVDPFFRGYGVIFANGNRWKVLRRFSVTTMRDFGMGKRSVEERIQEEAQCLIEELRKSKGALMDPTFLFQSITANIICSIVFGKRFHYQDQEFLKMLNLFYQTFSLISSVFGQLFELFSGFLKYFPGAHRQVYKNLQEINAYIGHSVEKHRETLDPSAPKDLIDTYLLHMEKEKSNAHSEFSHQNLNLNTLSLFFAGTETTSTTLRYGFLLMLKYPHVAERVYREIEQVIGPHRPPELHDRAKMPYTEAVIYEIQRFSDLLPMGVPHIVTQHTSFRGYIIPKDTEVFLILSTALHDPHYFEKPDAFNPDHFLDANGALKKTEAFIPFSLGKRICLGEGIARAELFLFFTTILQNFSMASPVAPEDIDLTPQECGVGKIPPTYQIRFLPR
# Protocol: as §1, §2, §3, §4
# CYP4A11 = target: T3, CYP4A11 (Homo sapiens, UniProt Q02928); details: 25μM THT, 35pmol CYP/mL
# T3 construct: purchased BD Biosciences; host or cells: baculovirus infected insect cells
# T3 sequence (Q02928 5-519): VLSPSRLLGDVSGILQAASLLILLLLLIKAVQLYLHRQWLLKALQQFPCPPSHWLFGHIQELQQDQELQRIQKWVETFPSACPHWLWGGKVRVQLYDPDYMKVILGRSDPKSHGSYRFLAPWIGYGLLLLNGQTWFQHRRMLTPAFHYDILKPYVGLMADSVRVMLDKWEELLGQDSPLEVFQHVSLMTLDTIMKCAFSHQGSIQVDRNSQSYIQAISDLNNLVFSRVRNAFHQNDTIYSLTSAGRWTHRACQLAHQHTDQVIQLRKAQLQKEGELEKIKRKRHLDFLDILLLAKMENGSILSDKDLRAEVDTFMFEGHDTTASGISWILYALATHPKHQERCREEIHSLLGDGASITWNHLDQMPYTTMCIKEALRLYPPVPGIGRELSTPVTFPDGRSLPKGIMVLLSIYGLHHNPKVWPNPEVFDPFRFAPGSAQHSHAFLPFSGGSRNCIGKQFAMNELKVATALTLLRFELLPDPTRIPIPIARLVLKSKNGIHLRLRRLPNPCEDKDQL
# Protocol: as §1, §2, §3, §4
# CYP2E1 = target: T4, CYP2E1 (Homo sapiens, UniProt P05181); details: 25μM THT, 35pmol CYP/mL
# T4 construct: purchased BD Biosciences; host or cells: baculovirus infected insect cells
# T4 sequence (P05181 whole entry): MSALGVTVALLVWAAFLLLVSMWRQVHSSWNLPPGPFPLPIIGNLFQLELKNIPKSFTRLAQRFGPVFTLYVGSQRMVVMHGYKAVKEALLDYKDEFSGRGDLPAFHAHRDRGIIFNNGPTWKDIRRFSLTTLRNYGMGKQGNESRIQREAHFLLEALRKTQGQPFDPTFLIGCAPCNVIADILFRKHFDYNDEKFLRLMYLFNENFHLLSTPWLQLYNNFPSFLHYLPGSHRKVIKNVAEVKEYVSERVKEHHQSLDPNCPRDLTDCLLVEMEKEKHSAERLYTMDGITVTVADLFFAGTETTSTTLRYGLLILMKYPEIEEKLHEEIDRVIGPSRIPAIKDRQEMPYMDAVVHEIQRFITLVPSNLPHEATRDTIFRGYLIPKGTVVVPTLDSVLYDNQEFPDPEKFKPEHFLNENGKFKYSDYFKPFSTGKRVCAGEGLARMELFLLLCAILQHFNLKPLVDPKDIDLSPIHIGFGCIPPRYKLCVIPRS
# Protocol: as §1, §2, §3, §4
# CYP2C19 = target: T5, CYP2C19 (Homo sapiens, UniProt P33261); details: 25μM THT, 35pmol CYP/mL
# T5 construct: purchased BD Biosciences; host or cells: baculovirus infected insect cells
# T5 sequence (P33261 whole entry): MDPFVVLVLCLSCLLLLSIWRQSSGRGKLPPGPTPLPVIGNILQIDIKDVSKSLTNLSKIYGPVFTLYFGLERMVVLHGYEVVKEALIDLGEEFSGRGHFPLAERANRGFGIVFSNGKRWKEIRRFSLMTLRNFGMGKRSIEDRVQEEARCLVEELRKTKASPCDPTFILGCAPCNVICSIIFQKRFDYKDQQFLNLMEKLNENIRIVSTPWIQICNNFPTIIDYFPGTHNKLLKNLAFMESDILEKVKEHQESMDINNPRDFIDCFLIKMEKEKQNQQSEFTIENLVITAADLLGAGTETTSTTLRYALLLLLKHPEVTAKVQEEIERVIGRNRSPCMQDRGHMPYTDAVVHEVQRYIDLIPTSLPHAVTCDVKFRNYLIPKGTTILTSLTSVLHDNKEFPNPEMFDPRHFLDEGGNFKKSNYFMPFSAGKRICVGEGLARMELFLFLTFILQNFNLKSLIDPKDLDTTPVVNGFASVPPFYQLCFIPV
# Protocol: as §1, §2, §3, §4
# CYP2D6 = target: T6, CYP2D6 (Homo sapiens, UniProt P10635); details: 25μM THT, 35pmol CYP/mL
# T6 construct: purchased BD Biosciences; host or cells: baculovirus infected insect cells
# T6 sequence (P10635 whole entry): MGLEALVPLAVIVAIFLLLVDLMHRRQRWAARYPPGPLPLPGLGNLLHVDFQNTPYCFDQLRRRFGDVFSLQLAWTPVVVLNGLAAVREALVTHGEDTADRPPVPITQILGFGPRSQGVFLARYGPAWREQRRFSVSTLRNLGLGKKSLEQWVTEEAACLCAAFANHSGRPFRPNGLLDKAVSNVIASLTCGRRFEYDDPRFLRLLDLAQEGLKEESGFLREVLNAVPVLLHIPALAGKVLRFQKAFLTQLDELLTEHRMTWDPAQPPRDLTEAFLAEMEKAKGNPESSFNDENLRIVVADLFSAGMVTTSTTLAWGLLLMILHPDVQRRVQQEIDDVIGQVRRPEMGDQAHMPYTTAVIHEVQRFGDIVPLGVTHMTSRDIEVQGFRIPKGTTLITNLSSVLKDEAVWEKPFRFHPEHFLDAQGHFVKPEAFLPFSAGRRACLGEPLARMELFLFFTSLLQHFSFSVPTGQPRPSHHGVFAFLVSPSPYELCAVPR
# Protocol: as §1, §2, §3, §4
# CYP3A4 = target: T7, CYP3A4 (Homo sapiens, UniProt P08684); details: 25μM THT, 35pmol CYP/mL
# T7 construct: purchased BD Biosciences; host or cells: baculovirus infected insect cells
# T7 sequence (P08684 whole entry): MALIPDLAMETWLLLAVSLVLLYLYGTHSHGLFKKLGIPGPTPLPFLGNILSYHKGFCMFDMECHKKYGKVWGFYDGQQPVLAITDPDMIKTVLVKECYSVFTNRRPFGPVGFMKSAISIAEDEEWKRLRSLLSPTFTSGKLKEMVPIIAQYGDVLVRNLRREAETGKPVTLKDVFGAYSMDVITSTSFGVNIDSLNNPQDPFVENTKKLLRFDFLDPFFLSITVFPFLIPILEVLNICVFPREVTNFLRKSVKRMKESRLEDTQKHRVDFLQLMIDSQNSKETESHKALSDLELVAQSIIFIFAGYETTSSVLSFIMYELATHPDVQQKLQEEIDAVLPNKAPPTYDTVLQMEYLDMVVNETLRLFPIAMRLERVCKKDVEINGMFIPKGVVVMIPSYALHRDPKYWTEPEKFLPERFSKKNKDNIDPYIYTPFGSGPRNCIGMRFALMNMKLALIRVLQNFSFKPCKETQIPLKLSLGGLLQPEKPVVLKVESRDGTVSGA
# Protocol: as §1, §2, §3, §4
# CYP2C9 = target: T8, CYP2C9 (Homo sapiens, UniProt P11712); details: 25μM THT, 35pmol CYP/mL
# T8 construct: purchased BD Biosciences; host or cells: baculovirus infected insect cells
# T8 sequence (P11712 whole entry): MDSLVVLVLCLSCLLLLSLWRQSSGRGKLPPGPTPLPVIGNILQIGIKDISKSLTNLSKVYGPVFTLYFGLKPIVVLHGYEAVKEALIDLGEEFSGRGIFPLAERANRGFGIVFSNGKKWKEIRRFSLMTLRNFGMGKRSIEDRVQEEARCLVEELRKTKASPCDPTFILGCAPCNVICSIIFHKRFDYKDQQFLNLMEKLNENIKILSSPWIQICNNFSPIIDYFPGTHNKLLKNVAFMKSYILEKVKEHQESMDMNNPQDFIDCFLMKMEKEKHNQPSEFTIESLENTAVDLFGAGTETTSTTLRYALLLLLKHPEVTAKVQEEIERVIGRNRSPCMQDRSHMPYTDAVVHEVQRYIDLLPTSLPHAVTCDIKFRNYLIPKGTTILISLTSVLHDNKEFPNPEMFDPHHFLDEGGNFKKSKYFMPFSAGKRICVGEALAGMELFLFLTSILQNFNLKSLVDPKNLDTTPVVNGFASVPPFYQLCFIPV
# Protocol: as §1, §2, §3, §4
compound,measurement,setting,value
"C1CCSC1 [THT, tetrahydrothiophene]",THT disappeared (metabolized) by recombinant FMO3,FMO3; within 15min,96%
same,CLint value,FMO3; FMO3,709.14 μL/min/mg protein
same,v0,FMO3; FMO3,6.87 nmol/min/mL
same,v0,CYP2B6,1.76 nmol/min/mL
same,v0/CYP,CYP2B6,0.05 nmol/min/pmol CYP
same,v0,CYP4A11,2.52 nmol/min/mL
same,v0/CYP,CYP4A11,0.07 nmol/min/pmol CYP
same,v0,CYP2E1,1.41 nmol/min/mL
same,v0/CYP,CYP2E1,0.04 nmol/min/pmol CYP
same,v0,CYP2C19,1.51 nmol/min/mL
same,v0/CYP,CYP2C19,0.04 nmol/min/pmol CYP
same,v0,CYP2D6,2.24 nmol/min/mL
same,v0/CYP,CYP2D6,0.06 nmol/min/pmol CYP
same,v0,CYP3A4,3.66 nmol/min/mL
same,v0/CYP,CYP3A4,0.11 nmol/min/pmol CYP
same,v0,CYP2C9,1.64 nmol/min/mL
same,v0/CYP,CYP2C9,0.05 nmol/min/pmol CYP
